# Assay results published in ChEMBL document CHEMBL1201862, “PubChem BioAssay data set” (2004).
#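 Step 1: Grow cells in 96-well plates. Step 2: Expose to compound for 48 hours at 5 concentrations. Step 3: Interpolate endpoints linearly; if unreached, use highest concentration. The concentration for 50% growth inhibition is given as GI50.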 Activity calls are given as the source filed them. Cut-off read from the data, not from the text of the source: active = GI50 up to about 1.1 µM and inactive = higher.
# Key:
# Assay in all cases: inhibition of tumour cell growth, NCI panel, 48 h
# 786-0 = tested on: 786-0
# A498 = tested on: A498
# A549 = tested on: A549
# ACHN = tested on: ACHN
# CAKI-1 = tested on: CAKI-1
# CCRF-CEM = tested on: CCRF-CEM
# COLO 205 = tested on: COLO 205
# DLD-1 = tested on: DLD-1
# DMS-114 = tested on: DMS-114
# DMS-273 = tested on: DMS-273
# HCC 2998 = tested on: HCC 2998
# HCT-116 = tested on: HCT-116
# HCT-15 = tested on: HCT-15
# HL-60 = tested on: HL-60
# HOP-18 = tested on: HOP-18
# HOP-62 = tested on: HOP-62
# HOP-92 = tested on: HOP-92
# HT-29 = tested on: HT-29
# IGROV-1 = tested on: IGROV-1
# K562 = tested on: K562
# KM-20L2 = tested on: KM-20L2
# KM12 = tested on: KM12
# LOX IMVI = tested on: LOX IMVI
# LXFL 529 = tested on: LXFL 529
# M14 = tested on: M14
# M19-MEL = tested on: M19-MEL
# MOLT-4 = tested on: MOLT-4
# Malme-3M = tested on: Malme-3M
# NCI-H226 = tested on: NCI-H226
# NCI-H23 = tested on: NCI-H23
# NCI-H460 = tested on: NCI-H460
# NCI-H522 = tested on: NCI-H522
# OVCAR-3 = tested on: OVCAR-3
# OVCAR-4 = tested on: OVCAR-4
# OVCAR-5 = tested on: OVCAR-5
# OVCAR-8 = tested on: OVCAR-8
# RPMI-8226 = tested on: RPMI-8226
# SF-268 = tested on: SF-268
# SF-295 = tested on: SF-295
# SF-539 = tested on: SF-539
# SK-MEL-28 = tested on: SK-MEL-28
# SK-MEL-2 = tested on: SK-MEL-2
# SK-MEL-5 = tested on: SK-MEL-5
# SK-OV-3 = tested on: SK-OV-3
# SN12C = tested on: SN12C
# SNB-19 = tested on: SNB-19
# SNB-75 = tested on: SNB-75
# SNB-78 = tested on: SNB-78
# SR = tested on: SR
# SW-620 = tested on: SW-620
# TK-10 = tested on: TK-10
# U-251 = tested on: U-251
# UACC-257 = tested on: UACC-257
# UACC-62 = tested on: UACC-62
# UO-31 = tested on: UO-31
# XF498 = tested on: XF498
# EKVX = tested on: EKVX
# RXF 393 = tested on: RXF 393
smiles,measurement,setting,value
COc1cccc2c1c1ccc3c(c1n2C)C(=O)C=CC3=O,GI50,786-0,17.3 µM (inactive)
same,GI50,A498,> 100 µM (inactive)
same,GI50,A549,> 100 µM (inactive)
same,GI50,ACHN,15 µM (inactive)
same,GI50,CAKI-1,3.15 µM (inactive)
same,GI50,CCRF-CEM,0.615 µM (active)
same,GI50,COLO 205,6.15 µM (inactive)
same,GI50,DLD-1,16.4 µM (inactive)
same,GI50,DMS-114,20 µM (inactive)
same,GI50,DMS-273,16 µM (inactive)
same,GI50,HCC 2998,48.4 µM (inactive)
same,GI50,HCT-116,14.2 µM (inactive)
same,GI50,HCT-15,17.7 µM
same,GI50,HL-60,1.51 µM (inactive)
same,GI50,HOP-18,14.1 µM (inactive)
same,GI50,HOP-62,> 100 µM (inactive)
same,GI50,HOP-92,13.1 µM (inactive)
same,GI50,HT-29,2.43 µM (inactive)
same,GI50,IGROV-1,25.5 µM (inactive)
same,GI50,K562,3.61 µM (inactive)
same,GI50,KM-20L2,63.4 µM (inactive)
same,GI50,KM12,78 µM (inactive)
same,GI50,LOX IMVI,16.9 µM (inactive)
same,GI50,LXFL 529,12 µM (inactive)
same,GI50,M14,14.6 µM (inactive)
same,GI50,M19-MEL,1.24 µM (inactive)
same,GI50,MOLT-4,2.64 µM (inactive)
same,GI50,Malme-3M,13.9 µM (inactive)
same,GI50,NCI-H226,64.3 µM (inactive)
same,GI50,NCI-H23,16.1 µM (inactive)
same,GI50,NCI-H460,48.4 µM (inactive)
same,GI50,NCI-H522,3.89 µM (inactive)
same,GI50,OVCAR-3,16.3 µM (inactive)
same,GI50,OVCAR-4,17.5 µM (inactive)
same,GI50,OVCAR-5,41.9 µM (inactive)
same,GI50,OVCAR-8,15.3 µM (inactive)
same,GI50,RPMI-8226,2.81 µM (inactive)
same,GI50,SF-268,17.8 µM (inactive)
same,GI50,SF-295,> 100 µM (inactive)
same,GI50,SF-539,16.6 µM (inactive)
same,GI50,SK-MEL-28,19 µM (inactive)
same,GI50,SK-MEL-2,16.9 µM (inactive)
same,GI50,SK-MEL-5,37.8 µM (inactive)
same,GI50,SK-OV-3,> 100 µM (inactive)
same,GI50,SN12C,20.3 µM (inactive)
same,GI50,SNB-19,> 100 µM (inactive)
same,GI50,SNB-75,0.695 µM (active)
same,GI50,SNB-78,18.7 µM (inactive)
same,GI50,SR,2.4 µM (inactive)
same,GI50,SW-620,12.1 µM (inactive)
same,GI50,TK-10,18.9 µM (inactive)
same,GI50,U-251,48.5 µM (inactive)
same,GI50,UACC-257,14.9 µM (inactive)
same,GI50,UACC-62,17.1 µM (inactive)
same,GI50,UO-31,18.6 µM (inactive)
same,GI50,XF498,15.8 µM (inactive)
NC(=S)N1N=C2c3ccccc3CC[C@H]2[C@@H]1c1cccs1,GI50,786-0,43.9 µM (inactive)
same,GI50,A498,60.3 µM (inactive)
same,GI50,A549,30.1 µM (inactive)
same,GI50,ACHN,49.2 µM (inactive)
same,GI50,CCRF-CEM,18.8 µM (inactive)
same,GI50,COLO 205,16.5 µM (inactive)
same,GI50,DLD-1,50.5 µM (inactive)
same,GI50,DMS-114,22.5 µM (inactive)
same,GI50,DMS-273,10.8 µM (inactive)
same,GI50,EKVX,38.4 µM (inactive)
same,GI50,HCC 2998,37.4 µM (inactive)
same,GI50,HCT-116,28.8 µM (inactive)
same,GI50,HCT-15,21.3 µM
same,GI50,HL-60,16.1 µM (inactive)
same,GI50,HOP-18,21.1 µM (inactive)
same,GI50,HOP-62,33.3 µM (inactive)
same,GI50,HOP-92,68.7 µM (inactive)
same,GI50,HT-29,24.1 µM (inactive)
same,GI50,IGROV-1,37.2 µM (inactive)
same,GI50,K562,7.69 µM (inactive)
same,GI50,KM-20L2,23.9 µM (inactive)
same,GI50,KM12,26.6 µM (inactive)
same,GI50,LOX IMVI,66.5 µM (inactive)
same,GI50,LXFL 529,30.8 µM (inactive)
same,GI50,M14,22 µM (inactive)
same,GI50,M19-MEL,19.9 µM (inactive)
same,GI50,MOLT-4,21.5 µM (inactive)
same,GI50,Malme-3M,19.2 µM (inactive)
same,GI50,NCI-H226,29 µM (inactive)
same,GI50,NCI-H23,24.6 µM (inactive)
same,GI50,NCI-H460,33 µM (inactive)
same,GI50,NCI-H522,16.8 µM (inactive)
same,GI50,OVCAR-3,36.2 µM (inactive)
same,GI50,OVCAR-4,45.2 µM (inactive)
same,GI50,OVCAR-5,> 100 µM (inactive)
same,GI50,OVCAR-8,32.7 µM (inactive)
same,GI50,RPMI-8226,37.9 µM (inactive)
same,GI50,RXF 393,16.8 µM (inactive)
same,GI50,SF-268,40.6 µM (inactive)
same,GI50,SF-295,15.8 µM (inactive)
same,GI50,SF-539,43.2 µM (inactive)
same,GI50,SK-MEL-28,44.3 µM (inactive)
same,GI50,SK-MEL-2,22.1 µM (inactive)
same,GI50,SK-OV-3,37.7 µM (inactive)
same,GI50,SN12C,39.3 µM (inactive)
same,GI50,SNB-19,75.7 µM (inactive)
same,GI50,SNB-78,32.4 µM (inactive)
same,GI50,SR,4.68 µM (inactive)
same,GI50,SW-620,38.7 µM (inactive)
same,GI50,TK-10,64.6 µM (inactive)
same,GI50,U-251,35.3 µM (inactive)
same,GI50,UACC-257,28 µM (inactive)
same,GI50,UACC-62,33.7 µM (inactive)
same,GI50,UO-31,27.5 µM (inactive)
same,GI50,XF498,37.2 µM (inactive)
CCOC(=O)C(=O)Nc1cccc(C)c1C,GI50,A498,> 100 µM (inactive)
same,GI50,A549,> 100 µM (inactive)
same,GI50,ACHN,> 100 µM (inactive)
same,GI50,CAKI-1,> 100 µM (inactive)
same,GI50,CCRF-CEM,> 100 µM (inactive)
same,GI50,COLO 205,> 100 µM (inactive)
same,GI50,DLD-1,> 100 µM (inactive)
same,GI50,DMS-114,> 100 µM (inactive)
same,GI50,DMS-273,> 100 µM (inactive)
same,GI50,EKVX,> 100 µM (inactive)
same,GI50,HCC 2998,> 100 µM (inactive)
same,GI50,HCT-116,> 100 µM (inactive)
same,GI50,HCT-15,> 100 µM
same,GI50,HL-60,> 100 µM (inactive)
same,GI50,HOP-18,> 100 µM (inactive)
same,GI50,HOP-62,> 100 µM (inactive)
same,GI50,HOP-92,> 100 µM (inactive)
same,GI50,HT-29,> 100 µM (inactive)
same,GI50,IGROV-1,> 100 µM (inactive)
same,GI50,K562,> 100 µM (inactive)
same,GI50,KM-20L2,> 100 µM (inactive)
same,GI50,KM12,> 100 µM (inactive)
same,GI50,LXFL 529,> 100 µM (inactive)
same,GI50,M14,> 100 µM (inactive)
same,GI50,M19-MEL,> 100 µM (inactive)
same,GI50,MOLT-4,> 100 µM (inactive)
same,GI50,Malme-3M,> 100 µM (inactive)
same,GI50,NCI-H226,> 100 µM (inactive)
same,GI50,NCI-H23,> 100 µM (inactive)
same,GI50,NCI-H460,> 100 µM (inactive)
same,GI50,NCI-H522,> 100 µM (inactive)
same,GI50,OVCAR-3,> 100 µM (inactive)
same,GI50,OVCAR-4,> 100 µM (inactive)
same,GI50,OVCAR-5,> 100 µM (inactive)
same,GI50,OVCAR-8,> 100 µM (inactive)
same,GI50,RPMI-8226,> 100 µM (inactive)
same,GI50,SF-268,> 100 µM (inactive)
same,GI50,SF-295,> 100 µM (inactive)
same,GI50,SF-539,> 100 µM (inactive)
same,GI50,SK-MEL-28,> 100 µM (inactive)
same,GI50,SK-MEL-2,> 100 µM (inactive)
same,GI50,SK-MEL-5,> 100 µM (inactive)
same,GI50,SK-OV-3,> 100 µM (inactive)
same,GI50,SN12C,> 100 µM (inactive)
same,GI50,SNB-19,> 100 µM (inactive)
same,GI50,SNB-75,> 100 µM (inactive)
same,GI50,SNB-78,> 100 µM (inactive)
same,GI50,SR,> 100 µM (inactive)
same,GI50,SW-620,> 100 µM (inactive)
same,GI50,TK-10,> 100 µM (inactive)
same,GI50,U-251,> 100 µM (inactive)
same,GI50,UACC-257,> 100 µM (inactive)
same,GI50,UACC-62,> 100 µM (inactive)
same,GI50,UO-31,> 100 µM (inactive)
same,GI50,XF498,> 100 µM (inactive)
